Measurements as given in PubChem BioAssay AID1259407 (Chemical Carcinogenesis Research Information System (CCRIS), 2018).
Active and inactive are the calls of the source. The rule behind the calls is not given here.

Tested on: CCRIS mutagenicity, Ames/micronucleus/aberration tests
Assay: CCRIS mutagenicity studies

What does the source list for `[Co]`?
mutagenic call (End Point: IN VITRO MICRONUCLEUS, Test System: HUMAN LYMPHOCYTES, Metabolic Activation: NONE): active; positive; mutagenic call (Test System: AMES SALMONELLA TYPHIMURIUM, Strain/Indicator: TA98, Metabolic Activation: NONE, Method: STANDARD PLATE): active; positive; mutagenic call (Test System: AMES SALMONELLA TYPHIMURIUM, Strain/Indicator: TA98, Metabolic Activation: RAT, LIVER, S-9, PHENOBARBITAL, Method: STANDARD PLATE): inactive; negative; mutagenic call (Test System: AMES SALMONELLA TYPHIMURIUM, Strain/Indicator: TA102, Metabolic Activation: NONE, Method: STANDARD PLATE): inactive; negative; mutagenic call (Test System: AMES SALMONELLA TYPHIMURIUM, Strain/Indicator: TA102, Metabolic Activation: RAT, LIVER, S-9, PHENOBARBITAL, Method: STANDARD PLATE): inactive; negative; mutagenic call (Test System: AMES SALMONELLA TYPHIMURIUM, Strain/Indicator: TA1535, Metabolic Activation: NONE, Method: STANDARD PLATE): inactive; negative; mutagenic call (Test System: AMES SALMONELLA TYPHIMURIUM, Strain/Indicator: TA1535, Metabolic Activation: RAT, LIVER, S-9, PHENOBARBITAL, Method: STANDARD PLATE): inactive; negative; mutagenic call (Test System: AMES SALMONELLA TYPHIMURIUM, Strain/Indicator: TA1537, Metabolic Activation: NONE, Method: STANDARD PLATE): active; positive; mutagenic call (Test System: AMES SALMONELLA TYPHIMURIUM, Strain/Indicator: TA1537, Metabolic Activation: RAT, LIVER, S-9, PHENOBARBITAL, Method: STANDARD PLATE): inactive; negative
